Results on three molecules are retold here after patent US7970552B1, “Diagnostic system for selecting nutrition and pharmacological products for animals” (priority 2008, dated 2011).

The test system of this test is cartilage cells of individual affected unhealthy dogs. The test can be described thus: Cartilage cells of affected dogs cultured in vitro with 0 or 60 mg/l curcumin or andrographolide for 6 hours, microarray fold change in gene expression. The format is cell-based, German Shepherd dogs. The note with it: for Fold change of gene expression, mean: 60 mg/l vs 0, 6 hours; for Net effect of the NBC on fold change, mean: net of fold change in unhealthy dogs. The method, then:
Total RNA of cells was extracted using phenol/guanidine HCI reagents (Trizol, Invitrogen). RNA quality integrity was analysed using the Agilent 2100 Bioanalyser (Agilent Technologies) of the sample. The samples determined to have no, or minimal, loss of integrity and thus were considered suitable for use in experiments. mRNA was amplified for each sample, starting with 500 ng total RNA using a commercially available kit (Ambion T7 MEGAscript high yield transcription kit, Ambion). The mRNA was quantified using a spectrophotometer. mRNA was directly reverse transcribed to cDNA from […] using the Superscript indirect cDNA labeling Core kit (Invitrogen, Milan, Italy).
Two micrograms of cDNA were labelled with Cyanine-3dCTP (Cy3) or Cyanine-5dCTP (Cy5) fluorochromes using the cDNA labeling purification module kit (Invitrogen, Milan, Italy). Samples were hybridised to a canine specific, whole genome 44k spot 60mer oligonucleotide (Agilent Technologies). The labelled cDNA was appropriately coupled and used for competitive hybridization on the same microarray at 42° C. for 16 h. Fluorescence incorporation was determined using a spectrophotometer. The relative intensity of labelled cDNA in was acquired with ScanArray LITE scanner (PerkinElmer Life Sciences, Inc).
Expression data were then exported into Excel 2007 and processed with SAM software; comparison between groups was achieved using paired student's t tests. […] Correction for multiple hypothesis testing was performed using the false discovery rate (FDR).
Searching within the nutrient data set for biologically active nutrients with anti-arthritic and anti-inflammatory properties identified curcumin and androgropholide as the appropriated compositions. The cartilage cells of individual affected unhealthy dogs were cultured in vitro with 0, or 60 mg/l of curcumin or androgropholide for 6 hours. At the end of the incubation, these cartilage cells from individual affected dogs were washed and used for RNA extraction. For the microarray analysis, co-hybridisation of the RNA from 0 and 60 mg/l was conducted, using the material and the methods described previously.
The table below reports the mean fold change in gene expression of two biologically active nutrients, namely curcumin and andrographolide. […] The dose to be added to the food or the nutrient composition is computed using literature data, which indicates a dose of 4 mg/kg body weight for either curcumin or andrographolide.

Where [1] appears, read: cartilage cells of affected dogs, 60 mg/l, 6 hours.

As for `C=C1CC[C@@H]2[C@](C)(CO)[C@H](O)CC[C@@]2(C)[C@@H]1C/C=C1/C(=O)OC[C@H]1O` [Androgrpholide], the “Fold change of gene expression, mean” value (gene ACTB) is reported as −1.0; the “Fold change of gene expression, mean” value (gene ACTR3) was found to be 1.0; the “Fold change of gene expression, mean” value (gene ADK) is reported as 0.0; the “Fold change of gene expression, mean” value (gene ANKRD10) is listed as 0.0; the “Fold change of gene expression, mean” value (gene CAV1) is on record as 0.0; the “Fold change of gene expression, mean” value (gene CDH11) is recorded as −1.0. Moreover, the “Fold change of gene expression, mean” value is −2.0 (gene COL3A1); 0.0 (gene COX1); 0.0 (gene COX2); −2.0 (gene IGFBP7); −6.0 (gene IL2); −5.0 (gene MMP2). Besides, the “Fold change of gene expression, mean” value is −6.0 (gene NOS2); −5.0 (gene PTGS-2); 0.0 (gene SPARC); 0.0 (gene STMN1); 0.0 (gene TIMP1); 0.0 (gene TIMP2). For the same molecule, the “Fold change of gene expression, mean” value reads like this: (gene TNF-a) −8.0; (gene TUBA) 0.0; (gene TUBB) 0.0. Further, the “Net effect of the NBC on fold change, mean” value is, setting by setting: (gene ACTB, 60 mg/l, 6 hours) 2.8; (gene ACTR3, 60 mg/l, 6 hours) 1.3; (gene ADK, 60 mg/l, 6 hours) 3.6; (gene ANKRD10, 60 mg/l, 6 hours) 5.2; (gene CAV1, 60 mg/l, 6 hours) 4.8; (gene CDH11, 60 mg/l, 6 hours) 5.9. Further, the “Net effect of the NBC on fold change, mean” value is 7.5 (gene COL3A1, 60 mg/l, 6 hours); 0.8 (gene COX1, 60 mg/l, 6 hours); 23.0 (gene COX2, 60 mg/l, 6 hours); 1.7 (gene IGFBP7, 60 mg/l, 6 hours); −3.0 (gene IL2, 60 mg/l, 6 hours); 5.0 (gene MMP2, 60 mg/l, 6 hours). Further, the “Net effect of the NBC on fold change, mean” value (gene NOS2, 60 mg/l, 6 hours) was −5.8; the “Net effect of the NBC on fold change, mean” value (gene PTGS-2, 60 mg/l, 6 hours) is −3.8; the “Net effect of the NBC on fold change, mean” value (gene SPARC, 60 mg/l, 6 hours) amounted to 6.3; the “Net effect of the NBC on fold change, mean” value (gene STMN1, 60 mg/l, 6 hours) is recorded as 6.2; the “Net effect of the NBC on fold change, mean” value (gene TIMP1, 60 mg/l, 6 hours) turned out to be 6.2; the “Net effect of the NBC on fold change, mean” value (gene TIMP2, 60 mg/l, 6 hours) was found to be 2.0. Also, the “Net effect of the NBC on fold change, mean” value reads like this: (gene TNF-a, 60 mg/l, 6 hours) 2.0; (gene TUBA, 60 mg/l, 6 hours) 4.7; (gene TUBB, 60 mg/l, 6 hours) 4.8.

Turning to `C=C1CC[C@@H]2[C@](C)(CO)[C@H](O)CC[C@@]2(C)[C@@H]1C/C=C1/C(=O)OC[C@H]1O` [andrographolide], under setting [1], the Anti-inflammatory activity result is recorded as “possesses an anti-inflammatory activity” and the “Match with the regulation of the genes up- or down-regulated in affected unhealthy cartilage cells” value was “does not exactly match the regulation of all the genes”.

With `COc1cc(/C=C/C(=O)CC(=O)/C=C/c2ccc(O)c(OC)c2)ccc1O` [curcumin], under setting [1], the “Match with the regulation of the genes up- or down-regulated in affected unhealthy cartilage cells” value is recorded as “completely satisfies these requirements”.
